# Data published in ChEMBL document CHEMBL4402545, “Subtype Selective γ-Aminobutyric Acid Type A Receptor (GABAAR) Modulators Acting at the Benzodiazepine Binding Site: An Update” (J Med Chem, 2020).
# Key:
# [1] = system: Homo sapiens; experiment: In vivo receptor occupancy GABAA receptor in human assessed as whole brain concentration causing reduction in [11C]flumazenil receptor labeling at 10 mg after […] by PET method relative to control; assay type: functional
# [2] = system: Rattus norvegicus; experiment: In vivo receptor occupancy at GABAA receptor in po dosed Sprague-Dawley rat assessed as forebrain concentration causing 50% reduction in [3H]-flumazenil receptor labeling after 1 hr by scintillation counting method; assay type: functional
# [3] = biological target: T1, Gamma-aminobutyric acid receptor subunit alpha-2 (Homo sapiens) (UniProt P47869); experiment: Positive allosteric modulation of GABAA alpha2 (unknown origin) relative to control
# T1 sequence (whole entry): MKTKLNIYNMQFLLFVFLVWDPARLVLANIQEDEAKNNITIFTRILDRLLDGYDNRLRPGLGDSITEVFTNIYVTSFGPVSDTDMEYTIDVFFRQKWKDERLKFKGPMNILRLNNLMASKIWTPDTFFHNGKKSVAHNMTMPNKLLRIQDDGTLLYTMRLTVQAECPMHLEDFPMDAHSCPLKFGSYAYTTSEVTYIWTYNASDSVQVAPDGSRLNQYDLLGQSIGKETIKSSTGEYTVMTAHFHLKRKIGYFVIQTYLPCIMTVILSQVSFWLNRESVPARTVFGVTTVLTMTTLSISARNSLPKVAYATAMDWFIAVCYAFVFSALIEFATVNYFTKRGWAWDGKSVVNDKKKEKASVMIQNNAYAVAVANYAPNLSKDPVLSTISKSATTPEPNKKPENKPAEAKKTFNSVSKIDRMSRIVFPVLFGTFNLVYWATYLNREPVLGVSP
# [4] = system: Rattus norvegicus; experiment: In vivo receptor occupancy at GABAA receptor in po dosed Sprague-Dawley rat assessed as cerebellum concentration causing 50% reduction in [3H]-flumazenil receptor labeling after 1 hr by scintillation counting method; assay type: functional
# [5] = system: Rattus norvegicus; experiment: In vivo receptor occupancy at GABAA receptor in po dosed Sprague-Dawley rat assessed as spinal cord concentration causing 50% reduction in [3H]-flumazenil receptor labeling after 1 hr by scintillation counting method; assay type: functional
# [6] = system: Homo sapiens; experiment: In vivo receptor occupancy GABAA receptor in human assessed as whole brain concentration causing reduction in [11C]flumazenil receptor labeling at 65 mg after […] by PET method relative to control; assay type: functional
# [7] = biological target: T2, Gamma-aminobutyric acid receptor subunit alpha-5 (Homo sapiens) (UniProt P31644); experiment: Binding affinity to GABA-A alpha5 (unknown origin) assessed as increase in induced current relative to control
# T2 sequence (whole entry): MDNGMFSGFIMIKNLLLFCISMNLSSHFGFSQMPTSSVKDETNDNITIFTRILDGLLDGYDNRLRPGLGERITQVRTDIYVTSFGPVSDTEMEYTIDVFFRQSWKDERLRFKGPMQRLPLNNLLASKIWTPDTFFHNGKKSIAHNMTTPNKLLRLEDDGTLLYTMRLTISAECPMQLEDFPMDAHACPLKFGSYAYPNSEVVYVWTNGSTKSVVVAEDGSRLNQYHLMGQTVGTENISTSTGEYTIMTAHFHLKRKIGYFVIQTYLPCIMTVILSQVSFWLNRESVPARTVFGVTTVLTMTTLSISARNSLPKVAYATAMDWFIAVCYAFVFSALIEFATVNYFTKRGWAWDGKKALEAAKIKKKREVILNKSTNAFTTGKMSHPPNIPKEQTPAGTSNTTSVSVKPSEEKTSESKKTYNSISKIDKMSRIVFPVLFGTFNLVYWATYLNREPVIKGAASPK
# [8] = Intrinsic clearance in human liver microsomes; assay type: ADME, Microsome; conditions: read-out: CLH
# [9] = Half life in rat at 1 mg/kg, po; assay type: ADME, organism-based; conditions: in vivo
# [10] = biological target: T3, Gamma-aminobutyric acid receptor subunit alpha-1 (Homo sapiens) (UniProt P14867); experiment: Positive allosteric modulation of GABAA alpha1 (unknown origin) relative to control
# T3 sequence (whole entry): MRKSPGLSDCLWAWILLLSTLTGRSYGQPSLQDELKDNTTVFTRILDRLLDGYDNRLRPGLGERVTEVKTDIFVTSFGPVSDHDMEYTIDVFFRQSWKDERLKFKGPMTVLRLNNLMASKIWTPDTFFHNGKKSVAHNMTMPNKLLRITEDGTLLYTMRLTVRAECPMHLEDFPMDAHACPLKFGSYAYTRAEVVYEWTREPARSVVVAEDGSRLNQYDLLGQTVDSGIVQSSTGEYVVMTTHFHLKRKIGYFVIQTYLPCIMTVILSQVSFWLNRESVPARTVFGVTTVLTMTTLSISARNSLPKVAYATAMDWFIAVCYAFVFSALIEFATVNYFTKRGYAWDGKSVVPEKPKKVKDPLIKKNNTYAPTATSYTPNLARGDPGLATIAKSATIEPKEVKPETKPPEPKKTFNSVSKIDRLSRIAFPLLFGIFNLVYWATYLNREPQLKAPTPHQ
# [11] = Half life in human at 0.04 to 100 mg, po; assay type: ADME; conditions: in vivo
# [12] = Displacement of [3H]-flumazenil from human GABAA alpha2beta3gamma2 expressed in HEK293 cell membranes measured after 2 hrs by liquid scintillation counting method
# [13] = biological target: T1, Gamma-aminobutyric acid receptor subunit alpha-2 (Homo sapiens); experiment: Binding affinity to GABA-A alpha2 (unknown origin) assessed as increase in induced current relative to control
# [14] = biological target: T4, Gamma-aminobutyric acid receptor subunit alpha-3 (Homo sapiens) (UniProt P34903); experiment: Binding affinity to GABA-A alpha3 (unknown origin) assessed as increase in induced current relative to control
# T4 sequence (whole entry): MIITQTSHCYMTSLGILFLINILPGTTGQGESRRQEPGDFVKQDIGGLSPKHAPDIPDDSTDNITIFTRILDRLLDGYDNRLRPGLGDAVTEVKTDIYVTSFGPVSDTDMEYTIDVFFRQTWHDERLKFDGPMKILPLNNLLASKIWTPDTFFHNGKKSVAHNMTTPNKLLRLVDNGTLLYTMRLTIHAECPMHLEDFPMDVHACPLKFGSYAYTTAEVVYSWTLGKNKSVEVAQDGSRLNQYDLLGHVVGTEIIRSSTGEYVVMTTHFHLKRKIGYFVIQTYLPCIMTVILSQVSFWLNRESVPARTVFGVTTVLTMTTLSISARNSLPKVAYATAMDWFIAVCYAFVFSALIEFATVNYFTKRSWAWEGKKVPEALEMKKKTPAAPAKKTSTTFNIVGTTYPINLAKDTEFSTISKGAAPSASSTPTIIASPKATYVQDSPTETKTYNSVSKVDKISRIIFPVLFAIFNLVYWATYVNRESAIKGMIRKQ
# [15] = biological target: T3, Gamma-aminobutyric acid receptor subunit alpha-1 (Homo sapiens); experiment: Binding affinity to GABA-A alpha1 (unknown origin) assessed as increase in induced current relative to control
# [16] = biological target: GABA-A receptor; alpha-1/beta-3/gamma-2 (Homo sapiens) (UniProt P14867+P18507+P28472); experiment: Positive allosteric modulation of recombinant human GABAA alpha1beta3gamma2 expressed in Ltk cells assessed as […] current response by whole cell patch clamp method relative to chlordiazepoxide; assay type: cell-based
# [17] = biological target: GABA-A receptor; alpha-5/beta-3/gamma-2 (Homo sapiens) (UniProt P18507+P28472+P31644); experiment: Positive allosteric modulation of recombinant human GABAA alpha5beta3gamma2 expressed in Ltk cells assessed as […] current response by whole cell patch clamp method relative to chlordiazepoxide; assay type: cell-based
# [18] = biological target: T5, GABA-A receptor; alpha-1/beta-3/gamma-2 (Homo sapiens, UniProt P14867+P18507+P28472); experiment: Displacement of [3H]-flumazenil from human GABAA alpha1beta3gamma2 expressed in Ltk cells; assay type: cell-based
# T5 sequence (P14867 whole entry): T3 sequence (whole entry)
# T5 sequence (P18507 whole entry): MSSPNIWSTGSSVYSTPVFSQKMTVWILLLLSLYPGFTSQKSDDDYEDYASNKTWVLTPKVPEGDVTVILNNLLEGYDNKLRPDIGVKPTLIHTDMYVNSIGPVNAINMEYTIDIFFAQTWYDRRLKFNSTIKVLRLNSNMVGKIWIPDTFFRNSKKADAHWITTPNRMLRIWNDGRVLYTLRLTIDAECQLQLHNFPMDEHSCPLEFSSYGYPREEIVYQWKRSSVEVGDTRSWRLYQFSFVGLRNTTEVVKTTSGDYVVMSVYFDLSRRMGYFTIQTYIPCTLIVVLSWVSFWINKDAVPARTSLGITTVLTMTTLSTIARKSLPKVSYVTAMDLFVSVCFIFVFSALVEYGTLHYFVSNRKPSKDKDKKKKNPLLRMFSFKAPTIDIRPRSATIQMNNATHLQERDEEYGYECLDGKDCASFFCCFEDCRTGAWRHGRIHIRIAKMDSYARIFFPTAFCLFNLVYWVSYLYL
# T5 sequence (P28472 whole entry): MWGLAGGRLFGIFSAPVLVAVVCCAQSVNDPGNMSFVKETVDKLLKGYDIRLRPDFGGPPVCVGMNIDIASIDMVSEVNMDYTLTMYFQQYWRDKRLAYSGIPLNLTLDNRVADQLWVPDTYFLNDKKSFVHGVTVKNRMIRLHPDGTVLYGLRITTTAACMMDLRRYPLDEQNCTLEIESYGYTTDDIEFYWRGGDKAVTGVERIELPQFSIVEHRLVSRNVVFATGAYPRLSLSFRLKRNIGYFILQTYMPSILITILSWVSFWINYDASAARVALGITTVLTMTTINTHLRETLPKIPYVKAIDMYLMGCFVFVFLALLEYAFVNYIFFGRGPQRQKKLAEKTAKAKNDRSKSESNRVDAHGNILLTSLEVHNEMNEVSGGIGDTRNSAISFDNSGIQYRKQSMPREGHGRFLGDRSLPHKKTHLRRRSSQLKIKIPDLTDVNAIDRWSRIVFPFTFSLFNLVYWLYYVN
# [19] = biological target: GABA-A receptor; alpha-3/beta-3/gamma-2 (Homo sapiens) (UniProt P18507+P28472+P34903); experiment: Positive allosteric modulation of recombinant human GABAA alpha3beta3gamma2 expressed in Ltk cells assessed as […] current response by whole cell patch clamp method relative to chlordiazepoxide; assay type: cell-based
# [20] = system: Rattus norvegicus; experiment: In vivo receptor occupancy at GABAA receptor in po dosed Sprague-Dawley rat assessed as brain concentration causing 50% reduction in [3H]-flumazenil receptor labeling by scintillation counting method; assay type: functional
# [21] = biological target: T6, GABA-A receptor; alpha-3/beta-3/gamma-2 (Homo sapiens, UniProt P18507+P28472+P34903); experiment: Displacement of [3H]-flumazenil from human GABAA alpha3beta3gamma2 expressed in Ltk cells; assay type: cell-based
# T6 sequence (P18507 whole entry): T5 sequence (P18507 whole entry)
# T6 sequence (P28472 whole entry): T5 sequence (P28472 whole entry)
# T6 sequence (P34903 whole entry): T4 sequence (whole entry)
# [22] = Displacement of [3H]-flumazenil from human GABAA alpha2beta3gamma2 expressed in Ltk cells; assay type: cell-based
# [23] = species: Homo sapiens; experiment: Positive allosteric modulation of recombinant human GABAA alpha2beta3gamma2 expressed in Ltk cells assessed as […] current response by whole cell patch clamp method relative to chlordiazepoxide; assay type: cell-based
# [24] = biological target: T7, GABA-A receptor; alpha-5/beta-3/gamma-2 (Homo sapiens, UniProt P18507+P28472+P31644); experiment: Displacement of [3H]-flumazenil from human GABAA alpha5beta3gamma2 expressed in Ltk cells; assay type: cell-based
# T7 sequence (P18507 whole entry): T5 sequence (P18507 whole entry)
# T7 sequence (P28472 whole entry): T5 sequence (P28472 whole entry)
# T7 sequence (P31644 whole entry): T2 sequence (whole entry)
smiles,measurement,setting,value
CCn1cnc2c(-c3ccc(F)c(-c4ccc(S(=O)(=O)CC)cc4OC)c3)cnnc21 [DARIGABAT],Occ,[1],69%
same,Occ50,[2],0.3 to 1 mg/kg
same,Activity,[3],> 50%
same,Occ50,[4],0.3 to 1 mg/kg
same,Occ50,[5],0.3 to 1 mg/kg
same,Occ,[6],89%
same,fold change (FC),[7],0.7
same,microsomal CLint,[8],< 20 µL/min/mg
same,half-life,[9],5.5 h
same,Activity,[10],< 20%
same,half-life,[11],6 to 8.9 h
same,Ki,[12],2.92 nM
same,fold change (FC),[13],0.35
same,fold change (FC),[14],0.49
same,fold change (FC),[15],0.11
Cn1ncnc1COc1nn2c(-c3c(F)cccc3F)nnc2cc1C1CCC1,fold change (FC),[16],0.18
same,fold change (FC),[17],0.18
same,Ki,[18],0.22 nM
same,fold change (FC),[19],0.45
same,Occ50,[20],2.2 mg/kg
same,Ki,[21],0.21 nM
same,Ki,[22],0.4 nM
same,fold change (FC),[23],0.23
same,Ki,[24],0.23 nM
